Among the data in the supplement of paper PMC10307832 are relative viability values, retold here.

Common to all, as to experiment: relative viability (nuclei count vs DMSO), 5 days (fraction); higher = more cells survive
Compound in the test “AZD1208 + Tozasertib”: N[C@@H]1CCCN(c2c(/C=C3\SC(=O)NC3=O)cccc2-c2ccccc2)C1 [AZD1208] + Cc1cc(Nc2cc(N3CCN(C)CC3)nc(Sc3ccc(NC(=O)C4CC4)cc3)n2)n[nH]1 [Tozasertib] (partner 0.1 µM)
A digest of the protocol: (§1)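 Relative viability is defined as nuclei in treated wells over nuclei in vehicle wells. Duplicate plates were run and medians reported. Lung cancer cell lines in 1536-well plates were dosed by pin tool one day after seeding, with one drug or with a fixed anchor-drug dose plus five library-drug doses (not always all listed) in √10 steps, and nuclei were counted after 5 days.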

Compound in the test “AZD1208 + Phenformin”: N[C@@H]1CCCN(c2c(/C=C3\SC(=O)NC3=O)cccc2-c2ccccc2)C1 [AZD1208] + N=C(N)NC(=N)NCCc1ccccc1 [Phenformin] (partner 250 µM)
A digest of the protocol: as §1

Compound in the test “AZD1208 + Palbociclib”: N[C@@H]1CCCN(c2c(/C=C3\SC(=O)NC3=O)cccc2-c2ccccc2)C1 [AZD1208] + CC(=O)c1c(C)c2cnc(Nc3ccc(N4CCNCC4)cn3)nc2n(C2CCCC2)c1=O [Palbociclib] (partner 0.5 µM)
The method in brief: as §1

Compound in the test “AZD1208 + Alpelisib”: N[C@@H]1CCCN(c2c(/C=C3\SC(=O)NC3=O)cccc2-c2ccccc2)C1 [AZD1208] + Cc1nc(NC(=O)N2CCC[C@H]2C(N)=O)sc1-c1ccnc(C(C)(C)C(F)(F)F)c1 [Alpelisib] (partner 2 µM)
A digest of the protocol: as §1

201T: the relative viability with AZD1208 + Tozasertib (first compound 0.08 µM) worked out at 0.959; with AZD1208 + Tozasertib (first compound 0.253 µM) it was 0.934; in the test with AZD1208 + Tozasertib (first compound 0.8 µM) it was 0.865; with AZD1208 + Tozasertib (first compound 2.53 µM) it was 0.803; with AZD1208 + Tozasertib (first compound 8 µM) it was 0.649; in the test with AZD1208 + Phenformin (first compound 0.08 µM) it was 0.434. The relative viability in the test with AZD1208 + Phenformin (first compound 0.253 µM) stood at 0.444; in the test with AZD1208 + Phenformin (first compound 0.8 µM), 0.429; with AZD1208 + Phenformin (first compound 2.53 µM), 0.427; with AZD1208 + Phenformin (first compound 8 µM), 0.351; with AZD1208 + Palbociclib (first compound 0.08 µM), 0.371; in the test with AZD1208 + Palbociclib (first compound 0.253 µM) it was 0.366. Further, the relative viability amounted to 0.351 with AZD1208 + Palbociclib (first compound 0.8 µM); 0.35 in the test with AZD1208 + Palbociclib (first compound 2.53 µM); 0.34 in the test with AZD1208 + Palbociclib (first compound 8 µM); 1.04 with AZD1208 + Alpelisib (first compound 0.08 µM); 0.948 in the test with AZD1208 + Alpelisib (first compound 0.253 µM); 0.919 with AZD1208 + Alpelisib (first compound 0.8 µM). Besides, the relative viability in the test with AZD1208 + Alpelisib (first compound 2.53 µM) came to 1.04; in the test with AZD1208 + Alpelisib (first compound 8 µM), 0.976.
For the cell line A549, the relative viability came to 0.157 in the test with AZD1208 + Phenformin (first compound 0.08 µM); 0.172 in the test with AZD1208 + Phenformin (first compound 0.253 µM); 0.168 in the test with AZD1208 + Phenformin (first compound 0.8 µM); 0.132 with AZD1208 + Phenformin (first compound 2.53 µM); 0.127 with AZD1208 + Phenformin (first compound 8 µM); 0.676 with AZD1208 + Alpelisib (first compound 0.08 µM). Moreover, the relative viability with AZD1208 + Alpelisib (first compound 0.253 µM) was found to be 0.622; with AZD1208 + Alpelisib (first compound 0.8 µM) it was 0.48; with AZD1208 + Alpelisib (first compound 2.53 µM), 0.687; with AZD1208 + Alpelisib (first compound 8 µM), 0.448.
For A-427, the relative viability with AZD1208 + Tozasertib (first compound 0.08 µM) came out at 0.196; in the test with AZD1208 + Tozasertib (first compound 0.253 µM) it was 0.195; in the test with AZD1208 + Tozasertib (first compound 0.8 µM), 0.212; with AZD1208 + Tozasertib (first compound 2.53 µM), 0.18; in the test with AZD1208 + Tozasertib (first compound 8 µM) it was 0.185; with AZD1208 + Phenformin (first compound 0.08 µM), 0.318. In addition, the relative viability with AZD1208 + Phenformin (first compound 0.253 µM) was 0.367; with AZD1208 + Phenformin (first compound 0.8 µM) it was 0.257; in the test with AZD1208 + Phenformin (first compound 2.53 µM), 0.323; with AZD1208 + Phenformin (first compound 8 µM) it was 0.262; with AZD1208 + Palbociclib (first compound 0.08 µM) it was 0.546; with AZD1208 + Palbociclib (first compound 0.253 µM), 0.548. Moreover, the relative viability in the test with AZD1208 + Palbociclib (first compound 0.8 µM) was 0.495; with AZD1208 + Palbociclib (first compound 2.53 µM), 0.551; with AZD1208 + Palbociclib (first compound 8 µM), 0.527; in the test with AZD1208 + Alpelisib (first compound 0.08 µM), 1.02; with AZD1208 + Alpelisib (first compound 0.253 µM) it was 1.07; with AZD1208 + Alpelisib (first compound 0.8 µM) it was 1.02. The values for the relative viability with AZD1208 + Alpelisib (first compound 2.53 µM) and with AZD1208 + Alpelisib (first compound 8 µM) were 1.02 and 0.97, respectively.
As for ABC-1, the relative viability with AZD1208 + Tozasertib (first compound 0.08 µM) is 0.168; with AZD1208 + Tozasertib (first compound 0.253 µM), 0.155; with AZD1208 + Tozasertib (first compound 0.8 µM), 0.214; in the test with AZD1208 + Tozasertib (first compound 2.53 µM), 0.192; with AZD1208 + Tozasertib (first compound 8 µM) it was 0.192; with AZD1208 + Phenformin (first compound 0.08 µM) it was 0.232. The relative viability came to 0.238 with AZD1208 + Phenformin (first compound 0.253 µM); 0.212 with AZD1208 + Phenformin (first compound 0.8 µM); 0.229 in the test with AZD1208 + Phenformin (first compound 2.53 µM); 0.2 with AZD1208 + Phenformin (first compound 8 µM); 0.815 in the test with AZD1208 + Palbociclib (first compound 0.08 µM); 0.631 in the test with AZD1208 + Palbociclib (first compound 0.253 µM). In addition, the relative viability with AZD1208 + Palbociclib (first compound 0.8 µM) turned out to be 0.474; with AZD1208 + Palbociclib (first compound 2.53 µM), 0.563; with AZD1208 + Palbociclib (first compound 8 µM), 0.444; with AZD1208 + Alpelisib (first compound 0.08 µM), 1.14; in the test with AZD1208 + Alpelisib (first compound 0.253 µM) it was 0.727; with AZD1208 + Alpelisib (first compound 0.8 µM) it was 0.769. Further, the results for the relative viability with AZD1208 + Alpelisib (first compound 2.53 µM) and in the test with AZD1208 + Alpelisib (first compound 8 µM) were 0.903 and 0.935, respectively.
